In patent US20060223708A1, “Substituted N-[pyrimidin-2-ylmethyl]carboxamides and their use as herbicides and plant growth regulators” (Bayer CropScience GmbH, priority 2005, published 2006):

Assays:
Lolium multiflorum [1] = assay: Pre-emergence effect on weeds; type: in vivo; conditions: dosage 1000 g of a.i./ha, scored visually after 3 to 4 weeks
From the text: (§1) 1. Pre-Emergence Effect on Weeds
(§2) Seeds of monocotyledonous and dicotyledonous weed plants are placed into sandy loam soil in cardboard pots and covered with soil. The compounds of the invention, formulated as wettable powders or emulsion concentrates, are then applied to the surface of the soil cover in the form of aqueous suspensions or emulsions at an application rate of 600 to 800 l of water/ha (converted), in various dosages. After the treatment, the pots are placed in a greenhouse and kept under good growth conditions for the weeds. After the test plants have emerged, the damage to the plants or the negative effect on the emergence was scored visually after a test period of 3 to 4 weeks by comparison with untreated controls. Here, the compounds according to the invention have excellent activity against a broad spectrum of economically important monocotyledonous and dicotyledonous harmful plants, see Tables A to G.

Amaranthus retroflexus [2] = assay: Pre-emergence effect on weeds; type: in vivo; conditions: dosage 1000 g of a.i./ha, scored visually after 3 to 4 weeks
From the text: as §1, §2

Setaria viridis [3] = assay: Pre-emergence effect on weeds; type: in vivo; conditions: dosage 1000 g of a.i./ha, scored visually after 3 to 4 weeks
From the text: as §1, §2

Stellaria media = assay: Pre-emergence effect on weeds; type: in vivo; conditions: dosage 1000 g of a.i./ha, scored visually after 3 to 4 weeks
From the text: as §1, §2

[4] = Pre-emergence effect on weeds; type: in vivo, Sinapis arvensis; conditions: dosage 1000 g of a.i./ha, scored visually after 3 to 4 weeks
From the text: as §1, §2

[5] = Pre-emergence effect on weeds; type: in vivo, Avena fatua; conditions: dosage 1000 g of a.i./ha, scored visually after 3 to 4 weeks
From the text: as §1, §2

Lolium multiflorum [6] = assay: Herbicidal post-emergence effect on harmful plants; type: in vivo; conditions: dosage 1000 g of a.i./ha, rated after 3 to 4 weeks
Description: (§3) 2. Herbicidal Post-Emergence Effect on Harmful Plants
(§4) Seeds of monocotyledonous and dicotyledonous harmful plants are placed in sandy loam soil in cardboard pots, covered with soil and cultivated in a greenhouse under good growth conditions. Two to three weeks after sowing, the test plants are treated at the three-leaf stage. The compounds according to the invention, formulated in the form of wettable powders or emulsion concentrates, are sprayed onto the surface of the green parts of the plants at an application rate of 600 to 800 l of water/ha (converted), in various dosages. After the test plants have remained in the greenhouse under optimum growth conditions for 3 to 4 weeks, the effect of the compounds is rated. Here, the compounds according to the invention have excellent activity against a broad spectrum of economically important monocotyledonous and dicotyledonous harmful plants, see Tables H to J.

Echinochloa crus galli = assay: Herbicidal post-emergence effect on harmful plants; type: in vivo; conditions: dosage 1000 g of a.i./ha, rated after 3 to 4 weeks
Description: as §3, §4

Amaranthus retroflexus [7] = assay: Herbicidal post-emergence effect on harmful plants; type: in vivo; conditions: dosage 1000 g of a.i./ha, rated after 3 to 4 weeks
Description: as §3, §4

Cyperus iria = assay: Herbicidal post-emergence effect on harmful plants; type: in vivo; conditions: dosage 1000 g of a.i./ha, rated after 3 to 4 weeks
Description: as §3, §4

Setaria viridis [8] = assay: Herbicidal post-emergence effect on harmful plants; type: in vivo; conditions: dosage 1000 g of a.i./ha, rated after 3 to 4 weeks
Description: as §3, §4

Row | Structure (SMILES) | Herbicidal effect LOLMU (Lolium multiflorum [1]) [%] | Herbicidal effect AMARE (Amaranthus retroflexus [2]) [%] | Herbicidal effect SETVI (Setaria viridis [3]) [%] | Herbicidal effect STEME (Stellaria media) [%] | Herbicidal effect SINAL [4] [%] | Herbicidal effect AVESA [5] [%] | Herbicidal effect LOLMU (Lolium multiflorum [6]) [%] | Herbicidal effect ECHCG (Echinochloa crus galli) [%] | Herbicidal effect AMARE (Amaranthus retroflexus [7]) [%] | Herbicidal effect CYPIR (Cyperus iria) [%] | Herbicidal effect SETVI (Setaria viridis [8]) [%]
1 | Cc1cc(Oc2cccc(C(F)(F)F)c2)nc(CNC(=O)C2CC2)n1 [Compound 1-206, N-[(4-methyl-6-{(3-trifluoromethyl)phenoxy}pyrimidin-2-yl)methyl]cyclopropanecarboxamide] | 100 | 100 | 100 | 100 | – | – | – | – | – | – | –
2 | CCc1cc(Oc2cc(C(F)(F)F)nn2C)nc(CNC(=O)C(F)(F)F)n1 [Compound 5-319] | 100 | – | 100 | 100 | 100 | – | – | – | – | – | –
3 | CCc1cc(Oc2ccnc(C(F)(F)F)c2)nc(CNC(=O)C2CC2)n1 [Compound 3-306, N-[(4-ethyl-6-{[2-(trifluoromethyl)pyridin-4-yl]oxy}pyrimidin-2-yl)methyl]cyclopropanecarboxamide] | – | 100 | 100 | – | 100 | 100 | 90 | 90 | 90 | 100 | –
4 | CCc1cc(Oc2csc(C(F)(F)F)c2)nc(CNC(=O)C2CC2)n1 [Compound 2-304] | – | 100 | 100 | 100 | 100 | – | – | – | – | – | –
5 | Cc1cc(Oc2csc(C(F)(F)F)c2)nc(CNC(=O)C2CC2)n1 [Compound 2-205] | – | 100 | 100 | 100 | 90 | – | – | 90 | 90 | 90 | 90
6 | Cc1cc(Oc2cc(C(F)(F)F)nn2C)nc(CNC(=O)C2CC2)n1 [Compound 5-206] | 100 | – | 100 | 100 | 100 | – | 90 | 100 | 90 | 100 | –
7 | Cc1cc(Oc2cccc(C(F)(F)F)c2)nc(CNC(=O)C2CCC2)n1 [Compound 1-505] | 100 | 100 | 100 | 100 | – | – | – | – | – | – | –
